Laboratory results: ChEMBL document CHEMBL5380832, “Serine-/Cysteine-Based sp2-Iminoglycolipids as Novel TLR4 Agonists: Evaluation of Their Adjuvancy and Immunotherapeutic Properties in a Murine Model of Asthma” (J Med Chem, 2023)
Calls of active or inactive are those of the source. The rule behind the calls is not given here.

Key:
[1] = tested on: Splenocyte; experiment: Cytotoxicity in wild-type C57BL/6JNarl mouse splenocytes assessed as reduction in cell viability at 25 uM by MTT assay; format: toxicity, cell-based
[2] = tested on: Splenocyte; experiment: Immunostimulatory activity in MyD88 knockout C57BL/6JNarl mouse splenocytes assessed as increase in IL-6 expression level at 10 to 25 uM incubated for 48 hrs by ELISA; format: functional, cell-based; conditions: dose 10-25 µM
[3] = target: T1, Antigen-presenting glycoprotein CD1d1 (Mus musculus) (UniProt P11609); experiment: Activation of CD1d signaling in mouse iNKT hybridoma DN3A4-1.2 cells co-cultured with mouse A20 cells expressing CD1d assessed as IL-2 expression level at 10 to 25 uM incubated for 24 hrs by ELISA; format: cell-based; conditions: iNKT hybridoma DN3A4-1.2 cell, dose 10-25 µM
T1 sequence (whole entry): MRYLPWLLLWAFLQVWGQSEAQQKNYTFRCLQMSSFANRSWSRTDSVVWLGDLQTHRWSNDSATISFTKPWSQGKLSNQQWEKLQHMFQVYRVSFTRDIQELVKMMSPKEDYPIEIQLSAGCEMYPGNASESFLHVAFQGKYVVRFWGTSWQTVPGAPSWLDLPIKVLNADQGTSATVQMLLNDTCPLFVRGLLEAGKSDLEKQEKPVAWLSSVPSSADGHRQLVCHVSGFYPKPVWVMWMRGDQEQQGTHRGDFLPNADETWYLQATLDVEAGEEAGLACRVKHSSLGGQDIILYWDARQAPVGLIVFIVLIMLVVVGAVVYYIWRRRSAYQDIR

[4] = tested on: Mus musculus; experiment: Immunomodulatory activity in OVA-sensitized asthmatic BALB/c mouse model assessed as reduction in IL-4 expression level in BALF at 20 microg/g, ip administered after day 14 OVA sensitization by ELISA; format: functional, organism-based; conditions: dose 20.0 µg/g
[5] = tested on: PBMC; experiment: Immunostimulatory activity in human PBMC cells assessed as increase in IL-6 expression level at 10 to 25 uM by ELISA; format: functional, cell-based; conditions: dose 10-25 µM
[6] = target: Toll-like receptor 4 (Homo sapiens) (UniProt O00206); experiment: Agonist activity at human TLR4 expressed in human HEK293 cells co-expressing human MD-2 and CD14 assessed as IL-8 expression level at 10 to 25 uM incubated for 24 hrs by ELISA; format: cell-based; conditions: filed as agonist, dose 10-25 µM
Toll-like receptor 4 (Homo sapiens), sequence (O00206 whole entry): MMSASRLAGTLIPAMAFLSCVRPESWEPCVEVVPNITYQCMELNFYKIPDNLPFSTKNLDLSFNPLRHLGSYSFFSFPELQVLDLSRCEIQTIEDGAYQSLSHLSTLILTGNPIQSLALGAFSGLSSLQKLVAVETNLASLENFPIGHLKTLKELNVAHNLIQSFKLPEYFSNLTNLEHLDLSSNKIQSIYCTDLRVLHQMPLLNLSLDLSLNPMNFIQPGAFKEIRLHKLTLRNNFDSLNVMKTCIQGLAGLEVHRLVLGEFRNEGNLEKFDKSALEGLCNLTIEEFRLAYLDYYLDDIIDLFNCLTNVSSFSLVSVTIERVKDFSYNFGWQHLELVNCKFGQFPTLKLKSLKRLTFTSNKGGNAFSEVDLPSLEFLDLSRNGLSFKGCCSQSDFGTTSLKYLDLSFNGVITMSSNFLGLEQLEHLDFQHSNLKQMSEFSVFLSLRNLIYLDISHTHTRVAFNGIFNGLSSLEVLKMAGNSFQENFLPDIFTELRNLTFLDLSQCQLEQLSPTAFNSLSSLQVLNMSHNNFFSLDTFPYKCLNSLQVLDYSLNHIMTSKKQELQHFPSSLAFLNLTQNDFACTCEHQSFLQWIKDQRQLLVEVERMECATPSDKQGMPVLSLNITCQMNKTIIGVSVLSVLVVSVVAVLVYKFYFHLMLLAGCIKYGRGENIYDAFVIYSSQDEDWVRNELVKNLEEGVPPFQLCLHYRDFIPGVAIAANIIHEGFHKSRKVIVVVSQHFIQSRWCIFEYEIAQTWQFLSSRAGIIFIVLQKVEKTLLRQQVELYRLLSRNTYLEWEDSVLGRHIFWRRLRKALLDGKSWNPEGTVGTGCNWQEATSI

[7] = tested on: Splenocyte; experiment: Immunostimulatory activity in MyD88 knockout C57BL/6JNarl mouse splenocytes assessed as increase in IFN-gamma expression level at 10 to 25 uM incubated for 48 hrs by ELISA; format: functional, cell-based; conditions: dose 10-25 µM
[8] = tested on: HEK293; experiment: Cytotoxicity in human HEK293 cells assessed as reduction in cell viability at 25 uM by MTT assay; format: toxicity, cell-based; conditions: hek293, 25 µM
[9] = tested on: Splenocyte; experiment: Immunostimulatory activity in wild-type C57BL/6JNarl mouse splenocytes assessed as increase in IFN-gamma expression level at 10 to 25 uM incubated for 48 hrs by ELISA; format: functional, cell-based; conditions: dose 10-25 µM
[10] = tested on: Mus musculus; experiment: Immunostimulatory activity in C57BL/6JNarl mouse assessed as increase in IL-4 expression level in serum at 20 microg/g, ip and measured after 18 hrs by ELISA; format: functional, organism-based; conditions: dose 20.0 µg/g
[11] = tested on: PBMC; experiment: Immunostimulatory activity in human PBMC cells assessed as increase in IFN-gamma expression level at 10 to 25 uM by ELISA; format: functional, cell-based; conditions: dose 10-25 µM
[12] = tested on: Mus musculus; experiment: Immunostimulatory activity in C57BL/6JNarl mouse assessed as increase in IFN-gamma expression level in serum at 20 microg/g, ip and measured after 18 hrs by ELISA; format: functional, organism-based; conditions: dose 20.0 µg/g
[13] = target: Toll-like receptor 2 (Homo sapiens) (UniProt O60603); experiment: Agonist activity at human TLR2 expressed in human HEK293 cells assessed as IL-8 expression level at 10 to 25 uM incubated for 24 hrs by ELISA; format: cell-based; conditions: dose 10-25 µM
Toll-like receptor 2 (Homo sapiens), sequence (O60603 whole entry): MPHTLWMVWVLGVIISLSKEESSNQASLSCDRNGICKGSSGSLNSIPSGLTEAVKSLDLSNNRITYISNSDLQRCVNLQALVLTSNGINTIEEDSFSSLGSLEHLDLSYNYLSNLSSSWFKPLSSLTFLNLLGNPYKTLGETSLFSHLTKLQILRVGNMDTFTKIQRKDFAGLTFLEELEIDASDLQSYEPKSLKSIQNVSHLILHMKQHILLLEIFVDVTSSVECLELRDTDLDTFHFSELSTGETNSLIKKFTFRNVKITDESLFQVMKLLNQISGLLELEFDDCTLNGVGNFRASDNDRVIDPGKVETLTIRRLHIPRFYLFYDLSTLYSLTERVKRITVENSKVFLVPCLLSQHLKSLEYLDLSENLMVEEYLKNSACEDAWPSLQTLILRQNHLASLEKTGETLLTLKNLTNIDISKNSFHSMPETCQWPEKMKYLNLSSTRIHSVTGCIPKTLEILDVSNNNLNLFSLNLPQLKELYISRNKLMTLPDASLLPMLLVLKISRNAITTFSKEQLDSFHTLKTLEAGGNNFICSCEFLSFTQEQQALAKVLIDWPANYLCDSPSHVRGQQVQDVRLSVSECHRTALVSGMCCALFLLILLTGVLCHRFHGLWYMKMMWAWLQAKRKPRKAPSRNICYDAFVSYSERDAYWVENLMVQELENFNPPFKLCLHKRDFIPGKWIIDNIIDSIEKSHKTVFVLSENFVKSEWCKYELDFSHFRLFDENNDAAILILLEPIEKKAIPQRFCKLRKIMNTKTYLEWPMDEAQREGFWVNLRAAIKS

[14] = target: Toll-like receptor 4 (Homo sapiens) (UniProt O00206); experiment: Activation of TLR4 signaling in human HEK293 cells expressing human MD-2 and CD14 assessed as IL-8 expression level at 10 to 25 uM incubated for 24 hrs by ELISA; format: cell-based; conditions: dose 10-25 µM
[15] = tested on: Mus musculus; experiment: Immunomodulatory activity in OVA-sensitized asthmatic BALB/c mouse model assessed as inhibition of methacholine induced airway hyperreactivity by measuring pulmonary resistance at 20 microg/g, ip administered after day 14 OVA sensitization; format: functional; design: scale not given: the % may be the effect or the level left; conditions: dose 20 µg/g
[16] = target: Toll-like receptor 4 (Homo sapiens) (UniProt O00206); experiment: Activation of TLR4 signaling in human HEK293 cells assessed as IL-8 expression level at 10 to 25 uM incubated for 24 hrs by ELISA; format: cell-based; conditions: dose 10-25 µM
[17] = target: T1, Antigen-presenting glycoprotein CD1d1 (Mus musculus); experiment: Binding affinity to mouse CD1d in alpha-GalCer stimulated mouse iNKT hybridoma DN3A4-1.2 cells expressing co-cultured with mouse A20 cells expressing mouse CD1d assessed as inhibition of alpha-GlaCer activity by measuring IL-2 expression level at 10 to 25 uM incubated for 24 hrs by ELISA; format: cell-based; conditions: iNKT hybridoma DN3A4-1.2 cell, dose 10-25 µM
[18] = tested on: Mus musculus; experiment: Immunomodulatory activity in OVA-sensitized asthmatic BALB/c mouse model assessed as reduction in IL-4 expression level in lung at 20 microg/g, ip administered after day 14 OVA sensitization by ELISA; format: functional, organism-based; conditions: dose 20.0 µg/g
[19] = tested on: Mus musculus; experiment: Immunostimulatory activity in C57BL/6JNarl mouse assessed as increase in IFN-gamma expression level in serum at 20 microg/g, ip and measured after 2 hrs by ELISA; format: functional, organism-based; conditions: dose 20.0 µg/g
[20] = tested on: Mus musculus; experiment: Immunostimulatory activity in C57BL/6JNarl mouse assessed as increase in IL-4 expression level in serum at 20 microg/g, ip and measured after 2 hrs by ELISA; format: functional, organism-based; conditions: dose 20.0 µg/g
[21] = tested on: Splenocyte; experiment: Immunostimulatory activity in wild-type C57BL/6JNarl mouse splenocytes assessed as increase in IL-6 expression level at 10 to 25 uM incubated for 48 hrs by ELISA; format: functional, cell-based; conditions: dose 10-25 µM
[22] = tested on: Mus musculus; experiment: Immuno-adjuvant activity in C57BL/6JNarl mouse […] with OT-1 mouse splenocytes assessed as fold increase in OVA-specific CD8+ T cell proliferation at 20 microg/g, ip in presence of OVA (257 to 264 residues) peptide treatment by flow cytometry relative to control; format: functional; conditions: dose 20 µg/g
[23] = tested on: Mus musculus; experiment: Anti-inflammatory activity in OVA-sensitized asthmatic BALB/c mouse model assessed as reduction in IL-13 expression level in lung at 20 microg/g, ip administered after day 14 OVA sensitization by ELISA; format: functional, organism-based; conditions: dose 20.0 µg/g
[24] = tested on: Mus musculus; experiment: Anti-inflammatory activity in OVA-sensitized asthmatic BALB/c mouse model assessed as reduction in IL-13 expression level in BALF at 20 microg/g, ip administered after day 14 OVA sensitization by ELISA; format: functional, organism-based; conditions: dose 20.0 µg/g
[25] = tested on: Mus musculus; experiment: Immunostimulatory activity in C57BL/6JNarl mouse assessed as increase in IL-4 mRNA expression level in spleen at 20 microg/g, ip by RT-qPCR analysis; format: functional, organism-based; conditions: dose 20.0 µg/g
[26] = tested on: Mus musculus; experiment: Immunostimulatory activity in C57BL/6JNarl mouse assessed as increase in Cd86 mRNA expression level in spleen at 20 microg/g, ip by RT-qPCR analysis; format: functional, organism-based; conditions: dose 20.0 µg/g
[27] = tested on: BMDC; experiment: Induction of wild type C57BL/6JNarl mouse BMDC cells maturation assessed as increase in IL-12p40 expression level at 10 to 50 uM by ELISA; format: functional, cell-based; conditions: dose 10-50 µM
[28] = Induction of MyD88 knockout C57BL/6JNarl mouse BMDC cells maturation assessed as increase in CD86 expression at 50 uM by flow cytometry (Rvb= 15%); format: functional
[29] = Induction of wild type C57BL/6JNarl mouse BMDC cells maturation assessed as increase in CD86 expression at 10 uM by flow cytometry (Rvb= 10.6%); format: functional
[30] = tested on: BMDC; experiment: Induction of MyD88 knockout C57BL/6JNarl mouse BMDC cells maturation assessed as increase in IL-12p40 expression level at 10 to 50 uM by ELISA; format: functional, cell-based; conditions: dose 10-50 µM
[31] = Induction of wild type C57BL/6JNarl mouse BMDC cells maturation assessed as increase in CD86 expression at 50 uM by flow cytometry (Rvb= 10.6%); format: functional

SMILES	Activity [1]	Activity [2]	Activity [3]	Activity [4]	Activity [5]	Activity [6]	Activity [7]	Activity [8]	Activity [9]	Activity [10]	Activity [11]	Activity [12]	Activity [13]	Activity [14]	Activity [15]	Activity [16]	Activity [17]	Activity [18]	Activity [19]	Activity [21]	also measured
CCCCCCCCCCCCNC(=O)[C@H](CS[C@@H]1[C@H](O)[C@@H](O)[C@@H](O)[C@H]2COC(=O)N21)NC(=O)CCCCCCCCCCC	Non-Toxic	inactive	inactive	Active	inactive	Active	inactive	Non-Toxic	Active	Active	inactive	Active	inactive	inactive	50%	inactive	inactive	Active	Active	inactive	Activity [20]: Active
CCCCCCCCCCCNC(=O)[C@H](CO[C@H]1O[C@H](CO)[C@H](O)[C@H](O)[C@H]1O)NC(=O)CCCCCCCCCCC		inactive					inactive		Active								inactive			Active	
CCCCCCCCCCCCNC(=O)[C@H](CO[C@@H]1[C@H](O)[C@@H](O)[C@@H](O)[C@H]2COC(=O)N21)NC(=O)CCCCCCCCCCC	Non-Toxic	inactive	inactive	Active	Active	Active	inactive	Non-Toxic	Active	Active	Active	Active	inactive	inactive	50%	inactive	inactive	Active	Active	Active	fold change (FC) [22]: 10; Activity [23]: Active; Activity [20]: Active; Activity [24]: Active
CCCCCCCCCCCCNC(=O)[C@H](CS[C@@H]1[C@H](O)[C@@H](O)[C@H](O)[C@H]2COC(=O)N21)NC(=O)CCCCCCCCCCC	Non-Toxic	inactive	inactive	Active	inactive	Active	inactive	Non-Toxic	Active	Active	inactive	Active	inactive	inactive	50%	inactive	inactive	Active	Active	inactive	Activity [20]: Active
CCCCCCCCCCCCNC(=O)[C@H](CO[C@@H]1[C@H](O)[C@@H](O)[C@H](O)[C@H]2COC(=O)N21)NC(=O)CCCCCCCCCCC	Non-Toxic	inactive	inactive	Active	Active	Active	inactive	Non-Toxic	Active	Active	Active	Active	inactive	inactive	50%	inactive	inactive	Active	Active	Active	Activity [25]: Active; fold change (FC) [22]: 5; Activity [26]: Active; Activity [27]: Dose-Dependent Effect; Activity [28]: 23.8%; Activity [29]: 25.8%; Activity [23]: Active; Activity [30]: inactive; Activity [31]: 54.9%; Activity [20]: Active; Activity [24]: Active
